From patent US8247211B2, “Glycopeptide antibiotics” (American Cyanamid Company, priority 2001, dated 2012)
Values after ≈ are worked out from the molar mass of the structure shown.

Tests used:
Assay in all cases: In vitro antibacterial evaluation: minimum inhibitory concentration (MIC), broth dilution method
Assay type in all cases: cell-based
[1] = tested on: Enterococcus sp.
Experimental: (§1) The minimum inhibitory concentration (MIC), the lowest concentration of the antibiotic which inhibits growth of the test organism, is determined by the broth dilution method using Muller-Hinton II […] (Baltimore Biological Laboratories) following the recommendations of the National Committee for Clinical Laboratory Standards [Methods for dilution antimicrobial susceptibility tests for bacteria that grow aerobically, approved standard M7-A2, National Committee for Clinical Laboratory Standards, Villanova, Pa].
(§2) An inoculum level of 5×10^5 CFU/mL, and a range of antibiotic concentrations (64-0.06 μg/mL) is used. […] The test organisms include a spectrum of Gram-positive bacteria comprised of Staphylococcus sp., Streptococcus sp. and Enterococcus sp. These organisms include recent clinical isolates that are resistant to methicillin, penicillin and/or vancomycin.

[2] = tested on: Streptococcus sp.
Experimental: as §1, §2

[3] = tested on: Staphylococcus sp.; conditions: for MIC Staphylococcus aureus-SMITH (GC 4543): strain GC 4543; for MIC Staphylococcus haemolyticus (GC 4546): strain GC 4546; for MIC Coagulase Negative Staphylococcus (GC 4547): strain GC 4547; for MIC Coagulase Negative Staphylococcus (GC 4548): strain GC 4548; for MIC Coagulase Negative Staphylococcus (GC 4549): strain GC 4549; for MIC Coagulase Negative Staphylococcus (GC 4551): strain GC 4551; for MIC Coagulase Negative Staphylococcus (ID-3941): strain ID-3941
Experimental: as §1, §2

[4] = broth dilution, 18 hours at 35° C.
[5] = broth dilution, inoculum 5×10^5 CFU/mL, 18 hours at 35° C.

CC(c1ccccc1)C1NC(=O)CNC(=O)C(CO)NC(=O)C(C(O)C2CNC(=N)N2C2OC(CO)C(O)C(O)C2O)NC(=O)C(C(O)C2CNC(=N)N2)NC(=O)C(Cc2ccc(OC3OC(COC(=O)C(c4ccccc4)c4ccccc4)C(OC4OC(CO)C(O)C(O)C4O)C(O)C3O)cc2)NC1=O (stereo not drawn) [Example 96b, Cyclo[glycyl-β-methylphenylalanyl-O-[6-O-(diphenylacetyl)-4-O-hexopyranosylhexopyranosyl]tyrosyl-3-(2-iminoimidazolidin-4-yl)seryl-3-(3-hexopyranosyl-2-iminoimidazolidin-4-yl)serylseryl]]
MIC Enterococcus faecalis (ATCC 29212) ([1]; strain ATCC 29212): 8 µg/mL (≈ 5.37 µM)
MIC Enterococcus faecalis (GC 2242) ([1]; strain GC 2242): 4 µg/mL (≈ 2.69 µM)
MIC Enterococcus faecium (GC 2243) ([1]; strain GC 2243): 8 µg/mL (≈ 5.37 µM)
MIC Enterococcus faecalis (GC 4552) ([1]; strain GC 4552): 8 µg/mL (≈ 5.37 µM)
MIC Enterococcus faecalis (GC 4553) ([1]; strain GC 4553): 8 µg/mL (≈ 5.37 µM)
MIC Enterococcus faecalis (GC 4554) ([1]; strain GC 4554): 8 µg/mL (≈ 5.37 µM)
MIC Enterococcus faecium (GC 4556) ([1]; strain GC 4556): 8 µg/mL (≈ 5.37 µM)
MIC Enterococcus faecium (GC 4557) ([1]; strain GC 4557): 1 µg/mL (≈ 0.671 µM)
MIC Enterococcus avium (GC 4558) ([1]; strain GC 4558): 4 µg/mL (≈ 2.69 µM)
MIC Streptococcus agalactiae (GC 4564) ([2]; strain GC 4564): 0.25 µg/mL (≈ 0.168 µM)
MIC Streptococcus pneumoniae (GC 4565) ([2]; strain GC 4565): <0.12 µg/mL
MIC Streptococcus pyogenes (ID-3187) ([2]; strain ID-3187): 0.25 µg/mL (≈ 0.168 µM)
MIC Staphylococcus aureus (ATCC 29213) [3, 4]: 1 µg/mL (≈ 0.671 µM)
MIC Staphylococcus aureus (GC 1131) [3, 4]: 2 µg/mL (≈ 1.34 µM)
MIC Staphylococcus aureus (GC 4541) [3, 4]: 1 µg/mL (≈ 0.671 µM)
MIC Staphylococcus aureus (GC 4542) [3, 4]: 2 µg/mL (≈ 1.34 µM)
MIC Staphylococcus aureus (GC 4544) [3, 4]: 2 µg/mL (≈ 1.34 µM)
MIC Staphylococcus aureus (GC 4545) [3, 4]: 1 µg/mL (≈ 0.671 µM)
MIC Staphylococcus aureus-SMITH (GC 4543) ([3]; 18 hours at 35° C.): 2 µg/mL (≈ 1.34 µM)
MIC Staphylococcus aureus-SMITH (GC 4543) [3, 4]: 2 µg/mL (≈ 1.34 µM)
MIC Staphylococcus haemolyticus (GC 4546) [3]: 1 µg/mL (≈ 0.671 µM)
MIC Staphylococcus haemolyticus (GC 4546) [3, 4]: 1 µg/mL (≈ 0.671 µM)
MIC Coagulase Negative Staphylococcus (GC 4547) [3]: 1 µg/mL (≈ 0.671 µM)
MIC Coagulase Negative Staphylococcus (GC 4547) [3, 4]: 1 µg/mL (≈ 0.671 µM)
MIC Coagulase Negative Staphylococcus (GC 4548) [3]: 0.5 µg/mL (≈ 0.336 µM)
MIC Coagulase Negative Staphylococcus (GC 4548) [3, 4]: 0.5 µg/mL (≈ 0.336 µM)
MIC Coagulase Negative Staphylococcus (GC 4549) [3]: 0.5 µg/mL (≈ 0.336 µM)
MIC Coagulase Negative Staphylococcus (GC 4549) [3, 4]: 0.5 µg/mL (≈ 0.336 µM)
MIC Coagulase Negative Staphylococcus (GC 4551) [3]: 2 µg/mL (≈ 1.34 µM)
MIC Coagulase Negative Staphylococcus (GC 4551) [3, 4]: 2 µg/mL (≈ 1.34 µM)
MIC Coagulase Negative Staphylococcus (ID-3941) [3]: 0.5 µg/mL (≈ 0.336 µM)
MIC Coagulase Negative Staphylococcus (ID-3941) [3, 4]: 0.5 µg/mL (≈ 0.336 µM)

CC(c1ccccc1)C1NC(=O)CNC(=O)C(CO)NC(=O)C(C(O)C2CNC(=N)N2C2OC(CO)C(O)C(O)C2O)NC(=O)C(C(O)C2CNC(=N)N2)NC(=O)C(Cc2ccc(OC3OC(CO)C(OC4OC5COC(c6ccc(C(=O)c7cc(I)c(I)c(I)c7)cc6)OC5C(O)C4O)C(O)C3O)cc2)NC1=O (stereo not drawn) [Example 187]
MIC Enterococcus avium (GC 4558) ([1]; Enterococcus avium (GC 4558), 18 hours at 35° C.): 16 µg/mL (≈ 8.58 µM)
MIC Enterococcus faecalis (ATCC 29212) ([1]; Enterococcus faecalis (ATCC 29212), 18 hours at 35° C.): 64 µg/mL (≈ 34.3 µM)
MIC Enterococcus faecalis (GC 2242) ([1]; Enterococcus faecalis (GC 2242), 18 hours at 35° C.): 64 µg/mL (≈ 34.3 µM)
MIC Enterococcus faecalis (GC 2691) ([1]; Enterococcus faecalis (GC 2691), 18 hours at 35° C.): 16 µg/mL (≈ 8.58 µM)
MIC Enterococcus faecalis (GC 4552) ([1]; Enterococcus faecalis (GC 4552), 18 hours at 35° C.): 64 µg/mL (≈ 34.3 µM)
MIC Enterococcus faecalis (GC 4553) ([1]; Enterococcus faecalis (GC 4553), 18 hours at 35° C.): 32 µg/mL (≈ 17.2 µM)
MIC Enterococcus faecalis (GC 4554) ([1]; Enterococcus faecalis (GC 4554), 18 hours at 35° C.): 64 µg/mL (≈ 34.3 µM)
MIC Enterococcus faecalis (GC 6189) ([1]; Enterococcus faecalis (GC 6189), 18 hours at 35° C.): 16 µg/mL (≈ 8.58 µM)
MIC Enterococcus faecium (GC 2243) ([1]; Enterococcus faecium (GC 2243), 18 hours at 35° C.): 16 µg/mL (≈ 8.58 µM)
MIC Enterococcus faecium (GC 4557) ([1]; Enterococcus faecium (GC 4557), 18 hours at 35° C.): 16 µg/mL (≈ 8.58 µM)
MIC Enterococcus avium (GC 4558) [1, 5]: 16 µg/mL (≈ 8.58 µM)
MIC Enterococcus faecalis (ATCC 29212) [1, 5]: 64 µg/mL (≈ 34.3 µM)
MIC Enterococcus faecalis (GC 2242) [1, 5]: 64 µg/mL (≈ 34.3 µM)
MIC Enterococcus faecalis (GC 2691) [1, 5]: 16 µg/mL (≈ 8.58 µM)
MIC Enterococcus faecalis (GC 4552) [1, 5]: 64 µg/mL (≈ 34.3 µM)
MIC Enterococcus faecalis (GC 4553) [1, 5]: 32 µg/mL (≈ 17.2 µM)
MIC Enterococcus faecalis (GC 4554) [1, 5]: 64 µg/mL (≈ 34.3 µM)
MIC Enterococcus faecalis (GC 6189) [1, 5]: 16 µg/mL (≈ 8.58 µM)
MIC Enterococcus faecium (GC 2243) [1, 5]: 16 µg/mL (≈ 8.58 µM)
MIC Enterococcus faecium (GC 4557) [1, 5]: 16 µg/mL (≈ 8.58 µM)
MIC Streptococcus agalactiae (GC 4564) ([2]; Streptococcus agalactiae (GC 4564), 18 hours at 35° C.): <0.12 µg/mL
MIC Streptococcus pneumoniae (ATCC 6301) ([2]; Streptococcus pneumoniae (ATCC 6301), 18 hours at 35° C.): <0.12 µg/mL
MIC Streptococcus pneumoniae (GC 1894) ([2]; Streptococcus pneumoniae (GC 1894), 18 hours at 35° C.): <0.12 µg/mL
MIC Streptococcus pneumoniae (GC 4565) ([2]; Streptococcus pneumoniae (GC 4565), 18 hours at 35° C.): <0.12 µg/mL
MIC Streptococcus pyogenes (GC 4563) ([2]; Streptococcus pyogenes (GC 4563), 18 hours at 35° C.): 0.5 µg/mL (≈ 0.268 µM)
MIC Streptococcus agalactiae (GC 4564) [2, 5]: <0.12 µg/mL
MIC Streptococcus pneumoniae (ATCC 6301) [2, 5]: <0.12 µg/mL
MIC Streptococcus pneumoniae (GC 1894) [2, 5]: <0.12 µg/mL
MIC Streptococcus pneumoniae (GC 4565) [2, 5]: <0.12 µg/mL
MIC Streptococcus pyogenes (GC 4563) [2, 5]: 0.5 µg/mL (≈ 0.268 µM)
MIC Staphylococcus aureus (ATCC 29213) ([3]; strain ATCC 29213): 64 µg/mL (≈ 34.3 µM)
MIC Staphylococcus aureus (GC 1131) ([3]; strain GC 1131): 64 µg/mL (≈ 34.3 µM)
MIC Staphylococcus aureus (GC 3051) ([3]; strain GC 3051): 64 µg/mL (≈ 34.3 µM)
MIC Staphylococcus aureus (GC 3053) ([3]; strain GC 3053): 32 µg/mL (≈ 17.2 µM)
MIC Staphylococcus aureus (GC 4541) ([3]; strain GC 4541): 64 µg/mL (≈ 34.3 µM)
MIC Staphylococcus aureus (GC 4542) ([3]; strain GC 4542): 64 µg/mL (≈ 34.3 µM)
MIC Staphylococcus aureus-SMITH (GC 4543) [3]: 64 µg/mL (≈ 34.3 µM)
MIC Staphylococcus aureus (GC 4544) ([3]; strain GC 4544): 64 µg/mL (≈ 34.3 µM)
MIC Staphylococcus aureus (GC 4545) ([3]; strain GC 4545): 64 µg/mL (≈ 34.3 µM)
MIC Coagulase Negative Staphylococcus (GC 4548) [3]: 16 µg/mL (≈ 8.58 µM)
MIC Coagulase Negative Staphylococcus (GC 4549) [3]: 64 µg/mL (≈ 34.3 µM)
MIC Coagulase Negative Staphylococcus (GC 4551) [3]: 32 µg/mL (≈ 17.2 µM)
MIC Coagulase Negative Staphylococcus (GC 6257) ([3]; strain GC 6257): 32 µg/mL (≈ 17.2 µM)
